{
  "source": "patent US20130029998A1",
  "about": "“Method of Detecting and Profiling Progression of the Risk of Neurodegenerative Diseases” (priority 2010, published 2013)",
  "key": {"[1]": {"system": "Splotch homozygous (Sp−/−) embryos", "experiment": "Rescue of neural tube defect in Pax3 mutant Splotch mouse model of spina bifida", "type": "in vivo"}, "[2]": {"system": "Splotch homozygous (Sp−/−) embryos", "experiment": "H3K27me2, H3K27me3 and KDM6B staining of neural tube explants from folate-rescued Splotch homozygous embryos", "type": "in vivo, mouse", "conditions": "folate-rescued Sp−/− embryos E10.0 (30 somite), neural crest cells of neural tube explants, compared with wild-type", "description": "After 140 hours neural crest cells were allowed to differentiate in the absence of growth factor for 2 days. After differentiation, neural crest cells from wild-type and Sp−/− embryo explant cultures were stained with DAPI, H3K27me2, H3K27me3 and KDM6B antibodies (Abeam, Inc Cambridge, Mass. 02139-1517). DAPI, H3K27me2, H3K27me3 and KDM6B positive cells from five different explant cultures were counted and expressed as a percentage of DAPI positive cells. […] The protein loading control was ascertained with Ponseau S staining."}},
  "data": [
    {"smiles": "Nc1nc2ncc(CNc3ccc(C(=O)N[C@@H](CCC(=O)O)C(=O)O)cc3)nc2c(=O)[nH]1", "note": "[Folic acid, folic acid]", "values": [
      {"measurement": "neural tube defect", "setting": "[1]", "value": "rescue of neural tube defect"},
      {"measurement": "H3K27me2 expression (positive cells as a percentage of DAPI positive cells)", "setting": "[2]", "value": "reversal to near wild-type expression"},
      {"measurement": "H3K27me3 expression (positive cells as a percentage of DAPI positive cells)", "setting": "[2]", "value": "reversal to near wild-type expression"},
      {"measurement": "KDM6B expression (positive cells as a percentage of DAPI positive cells)", "setting": "[2]", "value": "reversal to near wild-type expression"},
      {"measurement": "H3K27me2 expression (positive cells as a percentage of DAPI positive cells)", "setting": "[2]; listed as folic acid", "value": "reversal"}
    ]}
  ]
}
